Test results reported in patent publication US20080139664A1, “ANTI-GLYCATION AGENTS FOR PREVENTING AGE-, DIABETES-, AND SMOKING-RELATED COMPLICATIONS” (NATIONAL RESEARCH COUNCIL OF CANADA, priority 2001, published 2008).

What follows are compounds tested on bovine serum albumin (BSA) (assay: Fluorescamine assay of free primary amino groups of BSA incubated with D-ribose). Conditions: free primary amino group on BSA after 5 days at 37° C.; agent at 16.8 times IC50; 64% without agent.
Type: biochemical
Wherever Suppression of BSA-BSA cross-links is given: key: ++: strongly suppressed; +: suppressed; −: no suppression; *: moderate acceleration of the cross-linking.

Compound | Unreacted amino group
O=S(=O)(O)c1ccc(O)c2ncccc12 [8-Hydroxyquinoline-5-sulfonic acid] | 76%
Oc1cccc2cccnc12 [8-Hydroxyquinoline] | 55%
N=C(N)NN [Aminoguanidine] | 68%
CC(C)NC[C@@H](O)c1ccc(O)c(O)c1 [D-Isoproterenol] | 68%
NC[C@H](O)c1ccc(O)c(O)c1 [D-Norepinephrine] | 67%
CN(C)[C@@H]1C(O)=C(C(N)=O)C(=O)[C@@]2(O)C(O)=C3C(=O)c4c(O)ccc(Cl)c4[C@@H](O)[C@H]3C[C@@H]12 [Demeclocycline] | 69%

Each compound was assayed on bovine serum albumin (BSA) (assay: SDS-PAGE assessment of BSA-BSA protein cross-links). Conditions: mixtures further incubated for 4 weeks.
Type: biochemical
Method: Additionally, protein cross-links were semi-quantitatively assessed by SDS PAGE gel chromatography.
Protein-protein cross-links were characterized by SDS-PAGE. The incubation mixtures used for determination of the amino groups were further incubated for 4 weeks. An aliquot of the solution was applied to Pharmacia SDS FAST gel and the proteins were stained with Coomassie blue.

Compound | Suppression of BSA-BSA cross-links
O=S(=O)(O)c1ccc(O)c2ncccc12 [8-Hydroxyquinoline-5-sulfonic acid] | ++
Oc1cccc2cccnc12 [8-Hydroxyquinoline] | +
N=C(N)NN [Aminoguanidine] | +
CC(C)NC[C@@H](O)c1ccc(O)c(O)c1 [D-Isoproterenol] | +
NC[C@H](O)c1ccc(O)c(O)c1 [D-Norepinephrine] | +
CN(C)[C@@H]1C(O)=C(C(N)=O)C(=O)[C@@]2(O)C(O)=C3C(=O)c4c(O)ccc(Cl)c4[C@@H](O)[C@H]3C[C@@H]12 [Demeclocycline] | +

What follows are compounds tested on bovine serum albumin (BSA) (assay: not given). Conditions: not given.

Compound | IC50
O=S(=O)(O)c1ccc(O)c2ncccc12 [8-Hydroxyquinoline-5-sulfonic acid] | 560 µM
Oc1cccc2cccnc12 [8-Hydroxyquinoline] | 95 µM
NC[C@H](O)c1ccc(O)c(O)c1 [D-Norepinephrine] | 66 µM
CN(C)[C@@H]1C(O)=C(C(N)=O)C(=O)[C@@]2(O)C(O)=C3C(=O)c4c(O)ccc(Cl)c4[C@@H](O)[C@H]3C[C@@H]12 [Demeclocycline] | 19 µM

What follows are compounds tested on lysozyme (assay: ESI-MS of lysozyme glycoforms after incubation with D-ribose). Conditions: not given.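 Further: lysozyme incubated with D-ribose, with or without anti-glycation agents, then separated by reversed-phase HPLC and analysed by electrospray mass spectrometry.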

Compound | Peak area as % of total area of all glycoforms, 14,305 | Peak area as % of total area of all glycoforms, 14,364 | Peak area as % of total area of all glycoforms, 14,401 | Peak area as % of total area of all glycoforms, 14,419 | Peak area as % of total area of all glycoforms, 14,437 | Peak area as % of total area of all glycoforms, 14,496 | Peak area as % of total area of all glycoforms, 14,515 | Peak area as % of total area of all glycoforms, 14,533 | Peak area as % of total area of all glycoforms, 14,551 | Peak area as % of total area of all glycoforms, 14,569
Oc1cccc2cccnc12 [8-Hydroxyquinoline] | 67.8% | 4.2% | 5.8% | 3.6% | 9.0% | 1.7% | 1.7% | 1.6% | 1.5% | 2.3%

Same assay, conditions: FIG. 2, in words; 37° C., 5 days

Compound | amount of (AP-H2O) glycoform of lysozyme
N=C(N)NN [Aminoguanidine] | reduced

Same assay, conditions: lysozyme + 2D-ribose − 2H2O (14,569 Da); 37° C., 5 days

Compound | Peak area as % of total area of all glycoforms, 14,569
O=S(=O)(O)c1ccc(O)c2ncccc12 [8-Hydroxyquinoline-5-sulfonic acid] | 5.2%
N=C(N)NN [Aminoguanidine] | 5.7%
CC(C)NC[C@@H](O)c1ccc(O)c(O)c1 [D-Isoproterenol] | 1.4%
NC[C@H](O)c1ccc(O)c(O)c1 [D-Norepinephrine] | 1.0%
CN(C)[C@@H]1C(O)=C(C(N)=O)C(=O)[C@@]2(O)C(O)=C3C(=O)c4c(O)ccc(Cl)c4[C@@H](O)[C@H]3C[C@@H]12 [Demeclocycline] | 1.4%

Same assay, conditions: lysozyme + 2D-ribose − 3H2O (14,551 Da); 37° C., 5 days

Compound | Peak area as % of total area of all glycoforms, 14,551
O=S(=O)(O)c1ccc(O)c2ncccc12 [8-Hydroxyquinoline-5-sulfonic acid] | 0.9%
N=C(N)NN [Aminoguanidine] | 1.2%
CC(C)NC[C@@H](O)c1ccc(O)c(O)c1 [D-Isoproterenol] | 0.2%
NC[C@H](O)c1ccc(O)c(O)c1 [D-Norepinephrine] | 0.0%
CN(C)[C@@H]1C(O)=C(C(N)=O)C(=O)[C@@]2(O)C(O)=C3C(=O)c4c(O)ccc(Cl)c4[C@@H](O)[C@H]3C[C@@H]12 [Demeclocycline] | 0.0%

Same assay, conditions: lysozyme + 2D-ribose − 5H2O (14,533 Da); 37° C., 5 days

Compound | Peak area as % of total area of all glycoforms, 14,533
O=S(=O)(O)c1ccc(O)c2ncccc12 [8-Hydroxyquinoline-5-sulfonic acid] | 1.0%
N=C(N)NN [Aminoguanidine] | 1.1%
CC(C)NC[C@@H](O)c1ccc(O)c(O)c1 [D-Isoproterenol] | 0.5%
NC[C@H](O)c1ccc(O)c(O)c1 [D-Norepinephrine] | 0.0%
CN(C)[C@@H]1C(O)=C(C(N)=O)C(=O)[C@@]2(O)C(O)=C3C(=O)c4c(O)ccc(Cl)c4[C@@H](O)[C@H]3C[C@@H]12 [Demeclocycline] | 0.0%

Same assay, conditions: lysozyme + 2D-ribose − 6H2O (14,515 Da); 37° C., 5 days

Compound | Peak area as % of total area of all glycoforms, 14,515
O=S(=O)(O)c1ccc(O)c2ncccc12 [8-Hydroxyquinoline-5-sulfonic acid] | 0.5%
N=C(N)NN [Aminoguanidine] | 0.7%
CC(C)NC[C@@H](O)c1ccc(O)c(O)c1 [D-Isoproterenol] | 0.0%
NC[C@H](O)c1ccc(O)c(O)c1 [D-Norepinephrine] | 0.0%
CN(C)[C@@H]1C(O)=C(C(N)=O)C(=O)[C@@]2(O)C(O)=C3C(=O)c4c(O)ccc(Cl)c4[C@@H](O)[C@H]3C[C@@H]12 [Demeclocycline] | 0.0%

Same assay, conditions: lysozyme + D-ribose − 2H2O (14,419 Da); 37° C., 5 days

Compound | Peak area as % of total area of all glycoforms, 14,419
O=S(=O)(O)c1ccc(O)c2ncccc12 [8-Hydroxyquinoline-5-sulfonic acid] | 3.2%
N=C(N)NN [Aminoguanidine] | 2.6%
CC(C)NC[C@@H](O)c1ccc(O)c(O)c1 [D-Isoproterenol] | 1.8%
NC[C@H](O)c1ccc(O)c(O)c1 [D-Norepinephrine] | 1.9%
CN(C)[C@@H]1C(O)=C(C(N)=O)C(=O)[C@@]2(O)C(O)=C3C(=O)c4c(O)ccc(Cl)c4[C@@H](O)[C@H]3C[C@@H]12 [Demeclocycline] | 3.0%

Same assay, conditions: lysozyme + D-ribose − 3H2O (14,401 Da); 37° C., 5 days

Compound | Peak area as % of total area of all glycoforms, 14,401
O=S(=O)(O)c1ccc(O)c2ncccc12 [8-Hydroxyquinoline-5-sulfonic acid] | 2.0%
N=C(N)NN [Aminoguanidine] | 2.1%
CC(C)NC[C@@H](O)c1ccc(O)c(O)c1 [D-Isoproterenol] | 0.8%
NC[C@H](O)c1ccc(O)c(O)c1 [D-Norepinephrine] | 1.9%
CN(C)[C@@H]1C(O)=C(C(N)=O)C(=O)[C@@]2(O)C(O)=C3C(=O)c4c(O)ccc(Cl)c4[C@@H](O)[C@H]3C[C@@H]12 [Demeclocycline] | 1.9%

Same assay, conditions: lysozyme + D-ribose − H2O (14,437 Da); 37° C., 5 days

Compound | Peak area as % of total area of all glycoforms, 14,437
O=S(=O)(O)c1ccc(O)c2ncccc12 [8-Hydroxyquinoline-5-sulfonic acid] | 27.9%
N=C(N)NN [Aminoguanidine] | 26.2%
CC(C)NC[C@@H](O)c1ccc(O)c(O)c1 [D-Isoproterenol] | 13.7%
NC[C@H](O)c1ccc(O)c(O)c1 [D-Norepinephrine] | 12.1%
CN(C)[C@@H]1C(O)=C(C(N)=O)C(=O)[C@@]2(O)C(O)=C3C(=O)c4c(O)ccc(Cl)c4[C@@H](O)[C@H]3C[C@@H]12 [Demeclocycline] | 13.7%

Same assay, conditions: lysozyme + D-ribose − H2O with one carboxymethylated Lys residue (14,496 Da); 37° C., 5 days

Compound | Peak area as % of total area of all glycoforms, 14,496
O=S(=O)(O)c1ccc(O)c2ncccc12 [8-Hydroxyquinoline-5-sulfonic acid] | 0.0%
N=C(N)NN [Aminoguanidine] | 1.4%
CC(C)NC[C@@H](O)c1ccc(O)c(O)c1 [D-Isoproterenol] | 0.6%
NC[C@H](O)c1ccc(O)c(O)c1 [D-Norepinephrine] | 0.7%
CN(C)[C@@H]1C(O)=C(C(N)=O)C(=O)[C@@]2(O)C(O)=C3C(=O)c4c(O)ccc(Cl)c4[C@@H](O)[C@H]3C[C@@H]12 [Demeclocycline] | 0.0%

Same assay, conditions: lysozyme with one carboxymethylated Lys residue (14,364 Da); 37° C., 5 days

Compound | Peak area as % of total area of all glycoforms, 14,364
O=S(=O)(O)c1ccc(O)c2ncccc12 [8-Hydroxyquinoline-5-sulfonic acid] | 0.7%
N=C(N)NN [Aminoguanidine] | 3.2%
CC(C)NC[C@@H](O)c1ccc(O)c(O)c1 [D-Isoproterenol] | 4.7%
NC[C@H](O)c1ccc(O)c(O)c1 [D-Norepinephrine] | 5.0%
CN(C)[C@@H]1C(O)=C(C(N)=O)C(=O)[C@@]2(O)C(O)=C3C(=O)c4c(O)ccc(Cl)c4[C@@H](O)[C@H]3C[C@@H]12 [Demeclocycline] | 4.2%

Same assay, conditions: unmodified lysozyme (14,305 Da); 37° C., 5 days

Compound | Peak area as % of total area of all glycoforms, 14,305
O=S(=O)(O)c1ccc(O)c2ncccc12 [8-Hydroxyquinoline-5-sulfonic acid] | 58.0%
N=C(N)NN [Aminoguanidine] | 54.5%
CC(C)NC[C@@H](O)c1ccc(O)c(O)c1 [D-Isoproterenol] | 76.2%
NC[C@H](O)c1ccc(O)c(O)c1 [D-Norepinephrine] | 77.3%
CN(C)[C@@H]1C(O)=C(C(N)=O)C(=O)[C@@]2(O)C(O)=C3C(=O)c4c(O)ccc(Cl)c4[C@@H](O)[C@H]3C[C@@H]12 [Demeclocycline] | 75.2%

The compounds below were run on bovine serum albumin (BSA) (assay: Maillard fluorescence-based assay of AGEs formation, IC50 determination (BSA + D-ribose)). Conditions: inhibition of Maillard fluorescence development; 0.075 mM BSA, 50 mM D-ribose, 37° C., 5 days.

IC50 | Compound
345 µM | N=C(N)NN [Aminoguanidine]
